In article PMC9883826 (Scientific Reports, 2023):
In brackets after ≈: the same amount, converted by molar mass. Entries after “also recorded” stand apart in the source; their conditions may differ. Counter-ions that a name gives are not always drawn. Like-named read-outs stand apart in the source and are kept apart here.

Columns and labels:
[1] = test system: influenza A/chicken/Egypt/N12640A/2016(H5N1); assay: microbe, parasite or virus in culture; type: cell-based, influenza A virus
[2] = in vitro; conditions: dog
[3] = test system: influenza A/Egypt/NRC098/2019(H1N1); assay: microbe, parasite or virus in culture; type: cell-based, influenza A virus; conditions: for IC50: Influenza A virus, H1N1, MDCK
[4] = test system: severe acute respiratory syndrome coronavirus (SARS-CoV); conditions: cited from earlier work
[5] = test system: DENV-2 (dengue virus-2); conditions: cited from earlier work
[6] = in vivo; cited from earlier work
[7] = test system: influenza A/H5N1 virus; assay: microbe, parasite or virus in culture; type: cell-based; conditions: H5N1, read-out: Viral inhibition (%) Mean
[8] = test system: influenza A/H5N1 virus; assay: microbe, parasite or virus in culture; type: cell-based
[9] = test system: influenza A/H5N1 virus; assay: microbe, parasite or virus in culture; type: cell-based; remark: listed apart in the source
[10] = test system: influenza A/H1N1 virus; assay: microbe, parasite or virus in culture; type: cell-based; conditions: H1N1, read-out: Viral inhibition (%) Mean
[11] = test system: influenza A/H5N1 virus; assay: microbe, parasite or virus in culture; type: cell-based; remark: listed apart in the source
[12] = test system: HSV-2; conditions: cited from earlier work
[13] = test system: HSV-1; conditions: cited from earlier work
[14] = test system: HSV-2; conditions: cited from earlier work; remark: listed apart in the source
[15] = test system: MDCK cells; conditions: dog
[16] = Influenza A virus, H5N1, MDCK, 72 h
[17] = Influenza A virus, H5N1, read-out: Viricidal (%) viral inhibition
[18] = Influenza A virus, H5N1, read-out: Viral adsorption (%) viral inhibition
[19] = Influenza A virus, H5N1, read-out: Viral replication (%) viral inhibition
[20] = Influenza A virus, H5N1, MDCK, read-out: PIC50 H5N1

## CC(=O)N[C@H]1[C@H]([C@H](O)[C@H](O)CO)OC(C(=O)O)=C[C@@H]1N=C(N)N [Zanamivir, reference compound]
[1]
  Selectivity index (SI): > 1.26*10^5
[1]; [16]
  IC50: 0.079 µg/mL
[2]
  CC50: > 10000 µg/mL
[3]
  Selectivity index (SI): > 3.4*10^4
[3]; 72 h
  IC50: 0.291 µg/mL

## COC(=O)[C@H]1[C@H]2C[C@@H]3c4[nH]c5cc(OC)ccc5c4CCN3C[C@H]2C[C@@H](OC(=O)c2cc(OC)c(OC)c(OC)c2)[C@@H]1OC [Reserpine]
[1]
  Selectivity index (SI): > 33
  anti-influenza activity against avian influenza A/H5N1 virus (in words): moderate anti-influenza activity
[1]; [16]
  IC50: 42.4 µg/mL
[2]
  CC50: 1400 µg/mL (≈ 2.3 mM)
[3]
  anti-influenza activity against human influenza A/H1N1 virus (in words): moderate anti-influenza potential
[4]
  EC50: 3400 nM

## CNC(=O)Oc1ccc2c(c1)[C@]1(C)CCN(C)[C@@H]1N2C [Eserine]
[1]
  anti-influenza activity against avian influenza A/H5N1 virus (in words): poor or no antiviral potential activity
[1]; [16]
  IC50: > 10000 µg/mL
[2]
  CC50: > 10000 µg/mL
[3]
  anti-influenza activity against human influenza A/H1N1 virus (in words): no antiviral activity

## COc1ccc2c3ccnc(C)c3n(C)c2c1 [9 N methylharmine]
[5]
  EC50: 3200 ± 600 nM

## O=C1C[C@@H]2OCC=C3CN4CC[C@]56c7ccccc7N1[C@H]5[C@H]2[C@H]3C[C@H]46 [strychnine]
[6]
  high dose causing muscle contraction and convulsions that can lead to respiratory paralysis: 1.5 mg/kg

## O=C1C[C@@H]2OCC=C3CN4CC[C@]56c7ccccc7N1[C@H]5[C@H]2[C@H]3C[C@H]46 [Strychnine Sulfate, Strychnine sulfate]
[7]
  inhibition at 1 µg/mL: 74.4%
  inhibition at 10 µg/mL: 84%
  inhibition at 100 µg/mL: 96.3%
[8]; [17]
  inhibition at 1 µg/mL: 29.4%
  inhibition at 10 µg/mL: 37%
  inhibition at 100 µg/mL: 49.2%
[1]
  IC50: 11.851 µg/mL
  Selectivity index (SI): > 843
[1]; [16]
  IC50: 11.8 µg/mL
[9]
  main stage of antiviral action: viral adsorption (in words): hindering IAV adsorption to the host cell (MDCK) receptors
[9]; [18]
  inhibition at 1 µg/mL: 90.1%
  inhibition at 10 µg/mL: 99.5%
  inhibition at 100 µg/mL: 99%
[2]
  CC50: > 10000 µg/mL
[3]
  Selectivity index (SI): > 1.67*10^5
[3]; 72 h
  IC50: 0.06 µg/mL
[10]
  inhibition at 1 µg/mL: 65.5%
  inhibition at 10 µg/mL: 71.6%
  inhibition at 100 µg/mL: 87.4%
[11]; [19]
  inhibition at 1 µg/mL: 19.4%
  inhibition at 10 µg/mL: 27.3%
  inhibition at 100 µg/mL: 42%

## COc1ccc2c(c1)[nH]c1c(C)nccc12 [Harmine]
[1]
  anti-influenza activity against avian influenza A/H5N1 virus (in words): poor or no antiviral potential activity; also recorded: no effect; also recorded: no anti-influenza activity
[1]; [16]
  IC50: > 10000 µg/mL
[12]
  EC50: 1470 nM
[2]
  CC50: > 10000 µg/mL

## COc1cc2c(cc1OC)[C@@]13CCN4CC5=CCO[C@H]6CC(=O)N2[C@H]1[C@H]6[C@H]5C[C@H]43 [Brucine]
[1]
  anti-influenza activity against avian influenza A/H5N1 virus (in words): poor or no antiviral potential activity
[1]; [16]
  IC50: > 10000 µg/mL
[2]
  CC50: > 10000 µg/mL

## CC1=NCCc2c1[nH]c1cc(O)ccc21 [Harmalol]
[7]
  inhibition at 0.1 µg/mL: 54.7%
  inhibition at 1 µg/mL: 73.3%
  inhibition at 10 µg/mL: 86.4%
[8]; [17]
  inhibition at 0.1 µg/mL: 41.5%
  inhibition at 1 µg/mL: 50.9%
  inhibition at 10 µg/mL: 58%
[1]
  Selectivity index (SI): > 5*10^5
[1]; [16]
  IC50: 0.02 µg/mL
[1]; [20]
  IC50: 21 nM
[9]; [18]
  inhibition at 0.1 µg/mL: 60.3%
  inhibition at 1 µg/mL: 74.5%
  inhibition at 10 µg/mL: 82.1%
[2]
  CC50: > 10000 µg/mL
[3]
  Selectivity index (SI): > 2.8*10^5
[3]; 72 h
  IC50: 0.035 µg/mL
[3]; read-out: PIC50 H1N1
  IC50: 20 nM
[10]
  inhibition at 0.1 µg/mL: 74.3%
  inhibition at 1 µg/mL: 79.6%
  inhibition at 10 µg/mL: 91.8%
[11]
  main stage of antiviral action: viral replication (in words): interference with the viral replication compartment
[11]; [19]
  inhibition at 0.1 µg/mL: 87.5%
  inhibition at 1 µg/mL: 96.9%
  inhibition at 10 µg/mL: 98.7%

## c1ccc2c(c1)[nH]c1cnccc12 [Norharmane]
[1]
  anti-influenza activity against avian influenza A/H5N1 virus (in words): poor or no antiviral potential activity; also recorded: no effect
[1]; [16]
  IC50: > 10000 µg/mL
[2]
  CC50: > 10000 µg/mL

## Cc1nccc2c1[nH]c1ccccc12 [Harmane]
[7]
  inhibition at 10 µg/mL: 65.5%
  inhibition at 100 µg/mL: 74.4%
  inhibition at 1000 µg/mL: 85%
[8]; [17]
  inhibition at 10 µg/mL: 31.8%
  inhibition at 100 µg/mL: 41.8%
  inhibition at 1000 µg/mL: 82.1%
[1]; [16]
  IC50: 0.023 µg/mL
[1]; [20]
  IC50: 23 nM
[13]
  EC50: 4.90 µg/mL (≈ 0.0269 mM)
[9]; [18]
  inhibition at 10 µg/mL: 43.4%
  inhibition at 100 µg/mL: 48.7%
  inhibition at 1000 µg/mL: 61.4%
[2]
  CC50: 7180 µg/mL (≈ 39.4 mM)
[3]
  Selectivity index (SI): > 2.17*10^5
[3]; 72 h
  IC50: 0.033 µg/mL
[3]; read-out: PIC50 H1N1
  IC50: 18.2 nM
[10]
  inhibition at 10 µg/mL: 55.1%
  inhibition at 100 µg/mL: 74.4%
  inhibition at 1000 µg/mL: 84.6%
[14]
  EC50: 71.8 µg/mL (≈ 0.394 mM)
[11]
  main stage of antiviral action: viral replication (in words): interference with the viral replication compartment
[11]; [19]
  inhibition at 10 µg/mL: 83.3%
  inhibition at 100 µg/mL: 97.5%
  inhibition at 1000 µg/mL: 96.7%

## CC[C@@H](CO)NC(=O)[C@@H]1C=C2c3cccc4[nH]cc(c34)C[C@H]2N(C)C1 [Methyl ergometrine]
[1]
  anti-influenza activity against avian influenza A/H5N1 virus (in words): poor or no antiviral potential activity
[1]; [16]
  IC50: > 1000 µg/mL
[2]
  CC50: 8230 µg/mL (≈ 24.2 mM)

## NC12CC3CC(CC(C3)C1)C2 [Amantadine HCl, reference compound]
[1]
  Selectivity index (SI): 62.71
[1]; [16]
  IC50: 17.6 µg/mL
[2]
  CC50: 1100 µg/mL
[3]
  Selectivity index (SI): 74.32
[3]; 72 h
  IC50: 14.9 µg/mL
[15]
  CC50: 1103 µg/mL

## COc1ccc2c3c([nH]c2c1)C(C)=NCC3 [Harmaline]
[7]
  inhibition at 1 µg/mL: 72.6%
  inhibition at 10 µg/mL: 87.7%
  inhibition at 100 µg/mL: 94.2%
[8]
  main stage of antiviral action: viricidal (in words): direct cell-free viricidal effect
[8]; [17]
  inhibition at 1 µg/mL: 91%
  inhibition at 10 µg/mL: 96.7%
  inhibition at 100 µg/mL: 98.6%
[1]
  Selectivity index (SI): 138
[1]; [16]
  IC50: 3.42 µg/mL
[1]; [20]
  IC50: 28100 nM
[9]; [18]
  inhibition at 1 µg/mL: 34%
  inhibition at 10 µg/mL: 46.2%
  inhibition at 100 µg/mL: 51.8%
[2]
  CC50: 475 µg/mL (≈ 2.22 mM)
[3]
  Selectivity index (SI): 8482
[3]; 72 h
  IC50: 0.056 µg/mL
[3]; read-out: PIC50 H1N1
  IC50: 20 nM
[10]
  inhibition at 1 µg/mL: 66.7%
  inhibition at 10 µg/mL: 77.8%
  inhibition at 100 µg/mL: 86.5%
[11]; [19]
  inhibition at 1 µg/mL: 28.3%
  inhibition at 10 µg/mL: 40.3%
  inhibition at 100 µg/mL: 48.7%
